Results as given in publication PMC4846659, “Estrogen Receptor-Targeted Contrast Agents for Molecular Magnetic Resonance Imaging of Breast Cancer Hormonal Status” (Frontiers in Oncology, 2016).

Molecular target: ERα (estrogen receptor α) (Homo sapiens, UniProt P03372)
Assay: competitive radioligand binding assay with tritiated […]β-estradiol on recombinant hERα
Design: gene ESR1; recombinant hERα

Sequence of ERα (estrogen receptor α) (P03372 whole entry): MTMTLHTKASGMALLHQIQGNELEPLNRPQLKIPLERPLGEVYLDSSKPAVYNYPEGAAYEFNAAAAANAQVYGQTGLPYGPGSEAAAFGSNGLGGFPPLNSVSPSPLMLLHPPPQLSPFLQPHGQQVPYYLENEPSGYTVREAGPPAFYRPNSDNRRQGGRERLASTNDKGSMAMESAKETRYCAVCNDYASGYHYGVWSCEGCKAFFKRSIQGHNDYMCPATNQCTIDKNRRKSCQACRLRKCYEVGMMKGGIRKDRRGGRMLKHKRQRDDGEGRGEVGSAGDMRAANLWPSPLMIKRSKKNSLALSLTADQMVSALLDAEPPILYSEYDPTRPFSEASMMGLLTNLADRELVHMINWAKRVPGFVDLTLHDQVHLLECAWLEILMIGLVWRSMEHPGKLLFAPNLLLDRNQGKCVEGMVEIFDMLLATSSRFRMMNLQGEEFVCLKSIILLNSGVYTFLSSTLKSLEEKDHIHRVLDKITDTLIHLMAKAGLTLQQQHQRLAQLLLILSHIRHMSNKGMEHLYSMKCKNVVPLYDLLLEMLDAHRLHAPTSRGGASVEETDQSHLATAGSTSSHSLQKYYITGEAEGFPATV

SMILES | Ki
CC/C(=C(\c1ccc(C#Cc2cc(CN(CC(=O)[O-])CC(=O)[O-])nc(CN(CC(=O)[O-])CC(=O)[O-])c2)cc1)c1ccc(OCCN(C)C)cc1)c1ccccc1.[Gd+3].[Na+] [TPTA-Gd] | 130 ± 6 nM
C[C@]12CC[C@@H]3c4ccc(O)cc4CC[C@H]3[C@@H]1CC[C@@]2(O)C#Cc1cc(CN(CC(=O)[O-])CC(=O)[O-])nc(CN(CC(=O)[O-])CC(=O)[O-])c1.[Gd+3].[Na+] [EPTA-Gd] | 970 ± 70 nM
